# Measured values from ChEMBL document CHEMBL5291721, “A preclinical secondary pharmacology resource illuminates target-adverse drug reaction associations of marketed drugs” (Nat Commun, 2023).
# Assays:
# Androgen receptor [1] = biological target: T1, Androgen receptor (Rattus norvegicus, UniProt P15207); type: functional
# T1 sequence (P15207 whole entry): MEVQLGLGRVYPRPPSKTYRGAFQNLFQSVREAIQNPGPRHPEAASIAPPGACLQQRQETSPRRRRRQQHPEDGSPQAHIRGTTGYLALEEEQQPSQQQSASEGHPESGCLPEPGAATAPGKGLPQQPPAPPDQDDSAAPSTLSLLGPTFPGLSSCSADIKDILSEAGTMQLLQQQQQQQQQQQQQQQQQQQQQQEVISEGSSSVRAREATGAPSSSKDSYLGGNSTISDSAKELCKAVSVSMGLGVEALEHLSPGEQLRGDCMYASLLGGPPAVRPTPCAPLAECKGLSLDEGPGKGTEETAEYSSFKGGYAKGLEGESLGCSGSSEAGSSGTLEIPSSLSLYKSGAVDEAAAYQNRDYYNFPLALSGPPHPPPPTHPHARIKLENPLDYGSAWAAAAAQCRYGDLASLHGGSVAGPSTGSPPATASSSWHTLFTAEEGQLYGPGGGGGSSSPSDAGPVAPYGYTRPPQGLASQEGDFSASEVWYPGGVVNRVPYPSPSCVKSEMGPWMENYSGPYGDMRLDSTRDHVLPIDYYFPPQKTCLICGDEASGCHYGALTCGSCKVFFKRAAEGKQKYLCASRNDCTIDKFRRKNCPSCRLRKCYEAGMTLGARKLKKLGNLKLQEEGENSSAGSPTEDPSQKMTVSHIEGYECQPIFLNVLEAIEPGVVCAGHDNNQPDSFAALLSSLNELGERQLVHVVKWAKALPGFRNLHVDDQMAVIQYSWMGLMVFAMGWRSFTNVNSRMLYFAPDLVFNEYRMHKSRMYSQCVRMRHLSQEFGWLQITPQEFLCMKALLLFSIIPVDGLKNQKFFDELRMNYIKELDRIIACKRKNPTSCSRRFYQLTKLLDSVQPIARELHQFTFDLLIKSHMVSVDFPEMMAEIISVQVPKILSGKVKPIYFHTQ
# Estrogen receptor [2] = biological target: T2, Estrogen receptor (Homo sapiens, UniProt P03372); type: functional
# T2 sequence (P03372 whole entry): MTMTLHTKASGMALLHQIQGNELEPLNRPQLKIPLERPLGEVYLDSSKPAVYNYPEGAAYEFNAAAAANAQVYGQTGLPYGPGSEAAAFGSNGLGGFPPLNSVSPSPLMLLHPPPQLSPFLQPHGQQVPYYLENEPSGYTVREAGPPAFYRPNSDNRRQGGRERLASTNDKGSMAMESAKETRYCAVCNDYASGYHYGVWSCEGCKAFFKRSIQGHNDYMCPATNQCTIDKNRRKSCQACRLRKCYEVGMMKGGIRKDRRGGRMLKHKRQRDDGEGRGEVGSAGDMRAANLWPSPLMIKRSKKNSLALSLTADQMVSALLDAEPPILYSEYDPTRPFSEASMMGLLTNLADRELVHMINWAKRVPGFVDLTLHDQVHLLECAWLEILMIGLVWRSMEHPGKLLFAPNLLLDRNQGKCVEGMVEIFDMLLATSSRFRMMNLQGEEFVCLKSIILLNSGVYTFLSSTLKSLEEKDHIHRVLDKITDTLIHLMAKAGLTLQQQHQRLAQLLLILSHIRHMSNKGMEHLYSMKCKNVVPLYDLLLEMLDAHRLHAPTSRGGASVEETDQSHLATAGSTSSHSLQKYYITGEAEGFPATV
# Estrogen receptor [3] = biological target: T2, Estrogen receptor; type: functional; remark: listed apart in the source
# Thromboxane A2 receptor = biological target: T3, Thromboxane A2 receptor (Homo sapiens, UniProt P21731); type: functional, cell-based
# T3 sequence (P21731 whole entry): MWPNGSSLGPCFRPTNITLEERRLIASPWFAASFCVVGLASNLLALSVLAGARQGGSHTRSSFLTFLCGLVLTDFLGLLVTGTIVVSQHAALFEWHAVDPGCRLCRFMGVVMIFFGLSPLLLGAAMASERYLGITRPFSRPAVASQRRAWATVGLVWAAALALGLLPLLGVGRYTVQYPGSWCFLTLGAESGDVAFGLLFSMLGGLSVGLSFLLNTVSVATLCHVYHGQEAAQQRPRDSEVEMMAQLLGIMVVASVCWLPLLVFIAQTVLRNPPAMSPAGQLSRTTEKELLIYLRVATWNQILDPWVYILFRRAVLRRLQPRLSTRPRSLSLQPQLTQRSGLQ
# Cannabinoid receptor 1 = Cannabinoid receptor 1 (Homo sapiens, UniProt P21554); type: functional
# Androgen receptor [4] = biological target: T1, Androgen receptor
# [5] = biological target: Hydroxycarboxylic acid receptor 2 (Homo sapiens, UniProt Q8TDS4)
# [6] = biological target: 5-hydroxytryptamine receptor 2A (Homo sapiens, UniProt P28223)
# Adenosine receptor A1 = biological target: T4, Adenosine receptor A1 (Homo sapiens, UniProt P30542)
# T4 sequence (P30542 whole entry): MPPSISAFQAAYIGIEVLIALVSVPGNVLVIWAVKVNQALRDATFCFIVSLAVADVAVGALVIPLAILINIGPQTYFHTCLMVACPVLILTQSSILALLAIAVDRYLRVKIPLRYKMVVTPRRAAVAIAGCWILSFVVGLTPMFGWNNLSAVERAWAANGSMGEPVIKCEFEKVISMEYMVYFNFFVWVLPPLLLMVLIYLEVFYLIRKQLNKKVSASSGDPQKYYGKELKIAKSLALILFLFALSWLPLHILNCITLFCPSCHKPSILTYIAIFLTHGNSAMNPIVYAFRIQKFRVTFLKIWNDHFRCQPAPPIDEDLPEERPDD
# Also: assay procedure not described here.
# Sequence of Cannabinoid receptor 1 (P21554 whole entry): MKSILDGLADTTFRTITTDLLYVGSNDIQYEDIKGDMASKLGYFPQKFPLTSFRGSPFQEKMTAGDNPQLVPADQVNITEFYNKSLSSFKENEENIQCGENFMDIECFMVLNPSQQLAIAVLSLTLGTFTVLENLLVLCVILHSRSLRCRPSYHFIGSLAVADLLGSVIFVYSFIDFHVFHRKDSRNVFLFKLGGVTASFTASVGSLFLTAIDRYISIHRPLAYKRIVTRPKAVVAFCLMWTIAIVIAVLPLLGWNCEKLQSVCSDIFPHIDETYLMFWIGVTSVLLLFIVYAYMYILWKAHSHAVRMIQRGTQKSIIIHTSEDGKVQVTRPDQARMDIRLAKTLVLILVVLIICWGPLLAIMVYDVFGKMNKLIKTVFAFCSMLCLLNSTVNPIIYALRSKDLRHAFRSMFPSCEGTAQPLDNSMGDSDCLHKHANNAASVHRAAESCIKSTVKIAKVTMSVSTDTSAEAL
# Sequence of Hydroxycarboxylic acid receptor 2 (Q8TDS4 whole entry): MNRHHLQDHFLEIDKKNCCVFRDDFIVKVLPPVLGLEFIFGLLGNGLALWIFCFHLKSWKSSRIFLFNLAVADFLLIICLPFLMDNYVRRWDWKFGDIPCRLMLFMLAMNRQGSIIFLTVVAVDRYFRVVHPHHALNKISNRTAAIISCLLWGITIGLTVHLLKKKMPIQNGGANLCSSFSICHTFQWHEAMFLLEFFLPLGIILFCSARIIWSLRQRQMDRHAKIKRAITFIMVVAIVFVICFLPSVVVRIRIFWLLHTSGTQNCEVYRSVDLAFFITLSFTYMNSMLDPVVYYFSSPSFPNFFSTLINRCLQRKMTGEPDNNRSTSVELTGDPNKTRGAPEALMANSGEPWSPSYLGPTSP
# Sequence of 5-hydroxytryptamine receptor 2A (P28223 whole entry): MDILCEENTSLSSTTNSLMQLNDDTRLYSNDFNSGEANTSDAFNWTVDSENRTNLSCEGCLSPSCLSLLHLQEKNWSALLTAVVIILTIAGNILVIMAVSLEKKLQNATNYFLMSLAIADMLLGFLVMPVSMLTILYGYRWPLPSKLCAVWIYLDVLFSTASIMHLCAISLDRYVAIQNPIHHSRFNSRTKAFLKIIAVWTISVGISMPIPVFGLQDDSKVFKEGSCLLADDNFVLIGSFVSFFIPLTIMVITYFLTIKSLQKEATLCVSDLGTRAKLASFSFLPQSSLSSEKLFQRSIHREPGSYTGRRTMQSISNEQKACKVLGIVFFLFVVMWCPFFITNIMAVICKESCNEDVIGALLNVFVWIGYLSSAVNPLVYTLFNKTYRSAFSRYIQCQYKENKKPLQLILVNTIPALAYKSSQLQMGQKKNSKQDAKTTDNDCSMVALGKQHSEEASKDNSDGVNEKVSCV
compound,measurement,setting,value
CO/N=C(\C(=O)N[C@@H]1C(=O)N2C(C(=O)[O-])=C(C[N+]3(C)CCCC3)CS[C@H]12)c1csc(N)n1,AC50,Androgen receptor [1],> 300 µM
same,AC50,Estrogen receptor [2],> 300 µM
same,AC50,Estrogen receptor [3],54 µM
same,AC50,Thromboxane A2 receptor,> 300 µM
COC(=O)N[C@H](C(=O)N1CCC[C@H]1c1nc(-c2ccc(-c3ccc(-c4c[nH]c([C@@H]5CCCN5C(=O)[C@@H](NC(=O)OC)C(C)C)n4)cc3)cc2)c[nH]1)C(C)C,AC50,Androgen receptor [1],> 30 µM
CCOC(=O)[C@H](CCc1ccccc1)N[C@@H](C)C(=O)N1CCC[C@H]1C(=O)O,AC50,Cannabinoid receptor 1,> 10 µM
Nc1nc(N)c2nc(-c3ccccc3)c(N)nc2n1,AC50,Androgen receptor [1],> 30 µM
same,AC50,Androgen receptor [4],> 30 µM
same,AC50,Cannabinoid receptor 1,> 10 µM
same,AC50,Thromboxane A2 receptor,> 30 µM
C[C@H]1O[C@H](O[C@H]2[C@H](O)[C@@H](O)[C@@H](O[C@H]3[C@H](O)[C@@H](O)C(O)O[C@@H]3CO)O[C@@H]2CO)[C@H](O)[C@@H](O)[C@@H]1N[C@H]1C=C(CO)[C@@H](O)[C@H](O)[C@H]1O (stereo not given in full) [ACARBOSE],AC50,Cannabinoid receptor 1,> 10 µM
CC(=O)c1ccc2c(c1)N(CCCN1CCN(CCO)CC1)c1ccccc1S2 [ACETOPHENAZINE],AC50,Estrogen receptor [2],13 µM
same,AC50,Estrogen receptor [3],> 30 µM
Oc1ncnc2[nH]ncc12 [ALLOPURINOL],AC50,[5],> 10 µM
same,AC50,Thromboxane A2 receptor,> 30 µM
CC(N)Cc1ccccc1 (stereo not given) [AMPHETAMINE],AC50,Androgen receptor [1],> 30 µM
same,AC50,Androgen receptor [4],> 30 µM
same,AC50,Estrogen receptor [2],> 30 µM
same,AC50,Estrogen receptor [3],> 30 µM
same,AC50,[6],> 10 µM
CN1CCCC(n2nc(Cc3ccc(Cl)cc3)c3ccccc3c2=O)CC1 (stereo not given) [AZELASTINE],AC50,Estrogen receptor [2],> 30 µM
same,AC50,Estrogen receptor [3],> 30 µM
CC(C)NCC(O)COc1ccc(COCCOC(C)C)cc1 (stereo not given) [BISOPROLOL],AC50,Androgen receptor [4],> 30 µM
same,AC50,[6],> 10 µM
COc1cc(Nc2c(C#N)cnc3cc(OCCCN4CCN(C)CC4)c(OC)cc23)c(Cl)cc1Cl [BOSUTINIB],AC50,Adenosine receptor A1,> 30 µM
same,AC50,Cannabinoid receptor 1,> 10 µM
CCC[C@@H]1C[C@@H](C(=O)N[C@@H]([C@H]2O[C@H](SC)[C@H](O)[C@@H](O)[C@H]2O)[C@H](C)Cl)N(C)C1 [CLINDAMYCIN],AC50,[5],> 10 µM
CC(=O)OCC(=O)[C@@]1(O)CC[C@H]2[C@@H]3CCC4=CC(=O)CC[C@]4(C)[C@H]3C(=O)C[C@@]21C [CORTISONE ACETATE],AC50,Adenosine receptor A1,> 30 µM
CN(CCOc1ccc(NS(C)(=O)=O)cc1)CCc1ccc(NS(C)(=O)=O)cc1 [DOFETILIDE],AC50,[5],> 10 µM
same,AC50,[6],> 10 µM
COc1cc2c(cc1OC)C(=O)C(CC1CCN(Cc3ccccc3)CC1)C2 (stereo not given) [DONEPEZIL],AC50,Androgen receptor [4],> 30 µM
same,AC50,Cannabinoid receptor 1,> 10 µM
same,AC50,[6],> 10 µM
COC(=O)[C@@H]1CC2=CC(=O)CC[C@]2(C)[C@@]23O[C@@H]2C[C@@]2(C)[C@@H](CC[C@@]24CCC(=O)O4)[C@H]13 [EPLERENONE],AC50,Estrogen receptor [2],> 30 µM
same,AC50,Estrogen receptor [3],> 30 µM
same,AC50,[6],> 10 µM
CCC(=O)O[C@H]1[C@H](O[C@@H]2[C@@H](C)[C@H](O[C@H]3C[C@@](C)(OC)[C@@H](O)[C@H](C)O3)[C@@H](C)C(=O)O[C@H](CC)[C@@](C)(O)[C@H](O)[C@@H](C)C(=O)[C@H](C)C[C@@]2(C)O)O[C@H](C)C[C@@H]1N(C)C [ERYTHROMYCIN PROPIONATE],AC50,Adenosine receptor A1,> 30 µM
C#C[C@]1(O)CC[C@H]2[C@@H]3CCc4cc(O)ccc4[C@H]3CC[C@@]21C [ETHINYL ESTRADIOL],AC50,Adenosine receptor A1,> 30 µM
same,AC50,[5],> 10 µM
NC(N)=Nc1nc(CSCCC(N)=NS(N)(=O)=O)cs1 [FAMOTIDINE],AC50,Cannabinoid receptor 1,> 10 µM
CC(C)C(=O)Nc1ccc([N+](=O)[O-])c(C(F)(F)F)c1 [FLUTAMIDE],AC50,Thromboxane A2 receptor,6 µM
C[C@@H]1O[C@@H]1P(=O)(O)O [FOSFOMYCIN],AC50,Androgen receptor [4],> 30 µM
COc1ccc2c(c1)C(=O)N(CCc1ccc(S(=O)(=O)NC(=O)NC3CCCCC3)cc1)C(=O)C2(C)C [GLIQUIDONE],AC50,Androgen receptor [1],> 30 µM
NS(=O)(=O)c1cc2c(cc1Cl)NCNS2(=O)=O [HYDROCHLOROTHIAZIDE],AC50,Cannabinoid receptor 1,> 10 µM
CC(C)Cc1ccc(CC(=O)O)cc1 [IBUFENAC],AC50,Thromboxane A2 receptor,> 30 µM
CC(C)NNC(=O)c1ccncc1 [IPRONIAZID],AC50,Androgen receptor [1],> 30 µM
same,AC50,Estrogen receptor [2],> 30 µM
same,AC50,Estrogen receptor [3],> 30 µM
same,AC50,Thromboxane A2 receptor,> 30 µM
OC[C@@H](O)[C@@H](O)[C@H](O)[C@H](O)CO [MANNITOL],AC50,Adenosine receptor A1,> 30 µM
C[C@H]1C[C@@H]2[C@H]([C@@H](O)C[C@@]3(C)[C@H]2CC[C@]3(O)C(=O)CO)[C@@]2(C)C=CC(=O)C=C12 [METHYLPREDNISOLONE],AC50,Androgen receptor [4],> 30 µM
CCN(CC)CCNC(=O)c1cc(Cl)c(N)cc1OC [METOCLOPRAMIDE],AC50,[5],> 10 µM
CCc1nn(CCCN2CCN(c3cccc(Cl)c3)CC2)c(=O)n1CCOc1ccccc1 [NEFAZODONE],AC50,Cannabinoid receptor 1,> 10 µM
OCCN1CCN(CCCN2c3ccccc3C=Cc3ccccc32)CC1 [OPIPRAMOL],AC50,Adenosine receptor A1,> 30 µM
CCc1ccc(CCOc2ccc(CC3SC(=O)NC3=O)cc2)nc1 (stereo not given) [PIOGLITAZONE],AC50,Cannabinoid receptor 1,> 10 µM
CC(C(=O)O)c1ccc(N2CC=CC2)c(Cl)c1 (stereo not given) [PIRPROFEN],AC50,Androgen receptor [4],> 30 µM
same,AC50,[5],> 10 µM
same,AC50,[6],> 10 µM
CC[C@H](C)C(=O)O[C@H]1C[C@H](O)C=C2C=C[C@H](C)[C@H](CC[C@@H](O)C[C@@H](O)CC(=O)O)[C@H]21 [PRAVASTATIN],AC50,Estrogen receptor [2],> 30 µM
same,AC50,Estrogen receptor [3],> 30 µM
NC(=O)c1cnccn1 [PYRAZINAMIDE],AC50,Cannabinoid receptor 1,> 10 µM
same,AC50,Thromboxane A2 receptor,> 30 µM
O=C(NC[C@H]1CN(c2ccc(N3CCOCC3=O)cc2)C(=O)O1)c1ccc(Cl)s1 [RIVAROXABAN],AC50,Adenosine receptor A1,> 30 µM
Cc1cc2c(cc1CC(=O)c1sccc1S(=O)(=O)Nc1onc(C)c1Cl)OCO2 [SITAXENTAN],AC50,Adenosine receptor A1,> 30 µM
CCCS(=O)(=O)Nc1ccc(F)c(C(=O)c2c[nH]c3ncc(-c4ccc(Cl)cc4)cc23)c1F [VEMURAFENIB],AC50,Androgen receptor [1],> 30 µM
OCc1cc([C@@H](O)CNCCCCCCOCCOCc2c(Cl)cccc2Cl)ccc1O [VILANTEROL],AC50,Androgen receptor [1],> 30 µM
same,AC50,Estrogen receptor [2],> 30 µM
same,AC50,Estrogen receptor [3],> 30 µM
O=C(CCCCCCC(=O)Nc1ccccc1)NO [VORINOSTAT],AC50,Cannabinoid receptor 1,> 10 µM
same,AC50,[6],> 10 µM
